Consider four molecules from patent US6331555A, “Treatment of platelet derived growth factor related disorders such as cancers” (priority 1999, dated 2001).

One data set has as its target T1, EGFR (Homo sapiens, UniProt P00533).
T1 construct: expressed in transfected cells; host or cells: NIH3T3 mouse fibroblasts, retroviral vector
Nature of the data set: Receptor tyrosine kinase inhibition, EGFR. The following applies: read-out: EGFR ID50. The class given is cell-based. On the procedure:
(§1) For western blotting, cells were plated in 2 mL growth medium into 6-well dishes (500,000 cells per well) and allowed to attach overnight. The medium was replaced with 2 mL MCDB 105 (UCSF Cell Culture Facility) supplemented with 1% FBS. The plates were then incubated overnight at 37° C., ambient CO2. […] After a 7 min incubation at room temperature with ligand, the plates were put on ice and washed three times with 1 mL ice-cold PBS plus 1 mM orthovanadate. Lysis was achieved by pipetting cells in 0.5 mL of buffer containing 50 mM Tris, pH 7.4, 10% glycerol, 1% NP-40, 2 mM EDTA, 1 mM sodium vanadate (Na3 VO4), 10 mM pyrophosphate, 1 mM PMSF, […]. A 300 μL aliquot of each lysate was immediately added to 100 μL 4×Laemmli sample buffer ([…] Tris pH 6.9, 20% glycerol, 7% SDS, 5 mM EDTA, 5% β-mercaptoethanol) containing phosphatase inhibitors, 2 mM Na3 VO4 and 10 mM pyrophosphate. Samples were boiled for 5 min, frozen in dry ice-ethanol, and stored at -80° C. Proteins were resolved by SDS-PAGE (Bio-Rad Miniprotean II) and transferred to nitrocellulose membrane (Schleicher & Schuell) at 120 volts for 1 hr at room temperature in buffer containing 25 mM Tris pH 8.3, 20% methanol, 0.2 M glycine, 0.1% SDS. The integrity of the protein-to-membrane transfer was determined by staining with 1% Ponceau S in 5% acetic acid for 5 min. After destaining in several distilled water rinses, the membrane was soaked overnight in blocking buffer containing 5% milk in Tris-buffered saline, 0.05% Tween 20. Phosphotyresine was detected by incubating the membrane (1 hr at room temperature) with an anti-phosphotyosine antiserum diluted in blocking buffer at 1:3000. For C6 cells, PDGF-β receptor content in the lysates was confirmed in duplicate sample lanes by western blotting using an antibody specific for PDGF-β receptor (UBI). The antibodies were visualized using ECL reagent from Amersham and by exposure to Fuji RX film.
(§2) For ELISA assays, cells were grown to 80-90% confluency in growth medium and seeded in 96-well tissue culture plates in 0.5% serum at 25,000 to 30,000 cells per well. After overnight incubation in 0.5% serum-containingmedium, cells were changed to serum-free medium and treated with test compound for 2 hr in a 5% CO2, 37° C. incubator. Cells were then stimulated with ligand for 5-10 min followed by lysis with HNTG (20 mM Hepes, 150 mM NaCl, 10% glycerol, 5 mM EDTA, 5 mM Na3 VO4 0.2% Triton X-100, and 2 mM NaPyr). Cell lysates (0.5 mg/well in PBS) were transferred to ELISA plates previously coated with receptor-specific antibody and which had been blocked with 5% milk in TBST (50 mM Tris-HCl pH 7.2, 150 mM NaCl and 0.1% Triton X-100) at room temperature for 30 min. Lysates were incubated with shaking for 1 hr at room temperature. The plates were washed with TBST four times and then incubated with polyclonol anti-phosphotyrosine antibody at room temperature for 30 min. Excess anti-phosphotyrosine antibody was removed by rinsing the plate with TBST four times. Goat anti-rabbit IgG antibody was added to the ELISA plate for 30 min at room temperature followed by rinsing with TBST four more times.
(§3) The ability of different compound to inhibit different receptor tyrosine kinases was tested.

Data set [1] concerns PDGFR. Nature of the data set: Receptor tyrosine kinase inhibition, PDGFR. The class given is cell-based. The following applies: W = done in Western assay; read-out: PDGFR IC50 (W). As for the experimental part: as §1, with “The medium was replaced with 2 mL MCDB 105 (UCSF Cell Culture Facility) supplemented with 1% FBS.” left out, “Proteins were resolved by SDS-PAGE (Bio-Rad Miniprotean II) and transferred to nitrocellulose membrane (Schleicher & Schuell) at 120 volts for 1 hr at room temperature in buffer containing 25 mM Tris pH 8.3, 20% methanol, 0.2 M glycine, 0.1% SDS.” left out, “For C6 cells, PDGF-β receptor content in the lysates was confirmed in duplicate sample lanes by western blotting using an antibody specific for PDGF-β receptor (UBI).” left out
(§4) For ELISA assays, cells were grown to 80-90% confluency in growth medium and seeded in 96-well tissue culture plates in 0.5% serum at 25,000 to 30,000 cells per well. After overnight incubation in 0.5% serum-containingmedium, cells were changed to serum-free medium and treated with test compound for 2 hr in a 5% CO2, 37° C. incubator. […] Lysates were incubated with shaking for 1 hr at room temperature. The plates were washed with TBST four times and then incubated with polyclonol anti-phosphotyrosine antibody at room temperature for 30 min. Excess anti-phosphotyrosine antibody was removed by rinsing the plate with TBST four times. Goat anti-rabbit IgG antibody was added to the ELISA plate for 30 min at room temperature followed by rinsing with TBST four more times.
as §3

The next data set concerns the target T2, PDGF-R (U1242) (Homo sapiens, UniProt P09619).
T2 construct: U1242 (PDGF-β receptor); host or cells: U1242 MG glioma cells
Nature of the data set: U1242 kinase (PDGF-R activity). The class given is cell-based. On the procedure: as §1, with “The medium was replaced with 2 mL MCDB 105 (UCSF Cell Culture Facility) supplemented with 1% FBS.” left out, “Proteins were resolved by SDS-PAGE (Bio-Rad Miniprotean II) and transferred to nitrocellulose membrane (Schleicher & Schuell) at 120 volts for 1 hr at room temperature in buffer containing 25 mM Tris pH 8.3, 20% methanol, 0.2 M glycine, 0.1% SDS.” left out, “For C6 cells, PDGF-β receptor content in the lysates was confirmed in duplicate sample lanes by western blotting using an antibody specific for PDGF-β receptor (UBI).” left out
as §4
PDGF-R activity, C6 SRB, and in vivo efficacy were measured using the procedures described in the appendices above.

Data set [2] can be described thus: C6 glioma SC xenograft in mice. Type of data set: in vivo. The following applies: rat, in vivo, ip. As for the experimental part: (§5) Cell lines were grown in appropriate medium (see Appendix 1). Cells were harvested at or near confluency with 0.05% Trypsin-EDTA and pelleted at 450×g for 10 min. Pellets were resuspended in sterile PBS or media (without FBS) to a particular concentration and the cells were implanted into the hindflank of mice. Tumor growth was measured over 3 to 6 weeks using venier calipers. Tumor volumes were calculated as a product of length×width×height unless otherwise indicated. P values were calculated using the Students' t-test.
(§6) C6 and SKOV-3(T) cells were grown in culture, as described in "cell growth" above, and implanted into the hind flank of a female Balb/c nu/nu mouse at 3×10^6 cells (for C6 experiments), or 1×10^7 cells (for SKOV-3 experiments) in […] of PBS on Day 0. U87MG, U118MG or U373MG human glioblastoma cells (obtained from the ATCC), or A4312 were also implanted into athymic mice. […] Tumors were measured using venier calipers and tumor volume was calculated as a product of tumor length, width, and height.

In another data set the test system is C6 glioma cells. Briefly: C6 glioma SC xenograft in mice. The class given is in vivo. As for the experimental part: as §5, §6
Another data set relates to HER2. Briefly: Receptor tyrosine kinase inhibition, HER2. Type of data set: cell-based. As to conditions: read-out: HER2 IC50. As for the experimental part: as §1, §2, §3
In a further data set the test system is C6 cells. Briefly: C6 SRB growth assay. As to conditions: Rattus norvegicus, C6; read-out: C6 SRB IC50. Type of data set: cell-based, rat. (In general: The SRB assay estimates cell density from bound dye.)
Another data set is described as follows: LD10. As to conditions: in vivo.
Data set [3] addresses T3, PDGFR (Homo sapiens, UniProt P09619). Briefly: PDGF-stimulated receptor phosphorylation in U1242 cells, ELISA. Type of data set: cell-based. More on the design: U1242 (PDGF-β receptor); host or cells: U1242 MG glioma cells. As to conditions: 100 ng/ml PDGF-BB; read-out: ELISA P-TYR U1242 IC50. As for the experimental part: as §2, with “Cell lysates (0.5 mg/well in PBS) were transferred to ELISA plates previously coated with receptor-specific antibody and which had been blocked with 5% milk in TBST (50 mM Tris-HCl pH 7.2, 150 mM NaCl and 0.1% Triton X-100) at room temperature for 30 min.” left out
U1242 MG cells were plated in 96-well plates at a concentration of 5×10^4 cells/well in cultured media containing 0.5% FBS. The cells were incubated for 24 hours. The cells were then treated with a particular compound for 2 hours followed by the addition of 100 ng/ml PDGF-BB and incubation for 10 minutes.
Cells were lysed in 0.2 M Hepes, 0.15 M NaCl, 10% V/V glycerol, 0.04% Triton X-100, 5 mM EDTA, 5 MM Na^+ vanadate and […] Na^+ pyrophosphate. Cell lysates were then added to an ELISA plate coated with an anti-PDGF receptor antibody (Genzyme). ELISA plates were coated at […] of antibody/well in […] of PBS for 18 hours at 4° C. prior to the addition of the lysate.
The lysate was incubated in the coated plates for 1 hour and then washed four times in TBST (35 mM Tris-HCl pH 7.0, 0.15 M NaCl, 0.1% Triton X-100). Anti-phosphotyrosine antibody ([…] in PBS) was added and the mixture was incubated for 30 minutes at room temperature. The wells were then washed four times in TBST, a secondary antibody conjugated to POD (TAGO) was added to each well, and the treated wells were incubated for 30 minutes at room temperature. The wells were then washed four times in TBST, ABTS/H2 O2 solution was added to each well and the wells were incubated for two minutes. Absorbance was then measured at 410 nm.
(ELISA stands for enzyme-linked immunosorbent assay.)

Another data set relates to U1242 cells. Nature of the data set: Cytotoxicity in U1242 cells, MTT. The class given is cell-based, human. The following applies: Homo sapiens, read-out: CYTOXICITY MTT U1242 LD50; heading: CYTOXICITY MTT U1242 LD50. On the procedure: The cytotoxicity of each drug was also determined. The cells were plated as described above. Following incubation with drug, cell survival was measured by an MTT assay as described by Mossman J. Immunol. Methods 65:55-63 (1983), or by measuring the amount of LDH released (Korzeniewski and Callewaert, J. Immunol. Methods 64:313 (1983); Decker and Lohmann-Matthes, J. Immunol. Methods 115:61 (1988) .

In the next data set the target is T4, FLK-1 (Mus musculus, UniProt P35918).
T4 construct: expressed in transfected cells; host or cells: NIH3T3 mouse fibroblasts, retroviral vector
T4 sequence (P35918 20-1345): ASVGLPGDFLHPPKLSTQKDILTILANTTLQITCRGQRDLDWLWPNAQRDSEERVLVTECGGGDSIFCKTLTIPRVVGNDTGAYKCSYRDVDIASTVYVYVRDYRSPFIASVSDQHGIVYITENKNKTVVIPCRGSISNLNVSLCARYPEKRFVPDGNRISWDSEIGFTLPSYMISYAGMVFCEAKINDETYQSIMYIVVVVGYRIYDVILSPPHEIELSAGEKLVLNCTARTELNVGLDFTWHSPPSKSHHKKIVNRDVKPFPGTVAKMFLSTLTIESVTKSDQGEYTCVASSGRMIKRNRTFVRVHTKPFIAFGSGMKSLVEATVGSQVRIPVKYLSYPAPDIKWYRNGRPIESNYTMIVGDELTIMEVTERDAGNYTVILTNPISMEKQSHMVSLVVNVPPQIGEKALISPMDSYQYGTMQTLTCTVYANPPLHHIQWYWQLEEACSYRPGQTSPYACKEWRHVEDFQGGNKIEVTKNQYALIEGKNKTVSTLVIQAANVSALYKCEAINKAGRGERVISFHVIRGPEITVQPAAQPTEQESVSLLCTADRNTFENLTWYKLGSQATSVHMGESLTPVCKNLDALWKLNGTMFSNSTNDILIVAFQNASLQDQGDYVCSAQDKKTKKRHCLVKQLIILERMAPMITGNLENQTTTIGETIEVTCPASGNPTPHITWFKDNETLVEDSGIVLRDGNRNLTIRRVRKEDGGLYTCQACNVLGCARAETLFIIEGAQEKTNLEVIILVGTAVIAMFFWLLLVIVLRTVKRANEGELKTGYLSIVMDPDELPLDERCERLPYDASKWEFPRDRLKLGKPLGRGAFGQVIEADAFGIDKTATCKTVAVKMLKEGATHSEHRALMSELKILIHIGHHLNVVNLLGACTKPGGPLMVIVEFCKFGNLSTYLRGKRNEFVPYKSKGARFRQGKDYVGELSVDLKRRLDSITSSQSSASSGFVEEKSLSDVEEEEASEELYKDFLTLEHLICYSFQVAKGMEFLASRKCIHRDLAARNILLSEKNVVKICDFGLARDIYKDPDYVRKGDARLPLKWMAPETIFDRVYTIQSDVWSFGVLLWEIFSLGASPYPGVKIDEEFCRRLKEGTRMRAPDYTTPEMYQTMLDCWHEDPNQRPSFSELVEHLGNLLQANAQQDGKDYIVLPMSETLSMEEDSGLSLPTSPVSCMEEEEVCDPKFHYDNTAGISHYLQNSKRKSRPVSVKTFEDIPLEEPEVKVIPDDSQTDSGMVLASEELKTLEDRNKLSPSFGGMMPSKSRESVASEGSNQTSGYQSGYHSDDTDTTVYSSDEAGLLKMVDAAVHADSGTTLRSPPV
Nature of the data set: Receptor tyrosine kinase inhibition, FLK-1. As to conditions: read-out: FLK-1 IC50. Type of data set: cell-based. On the procedure: as §1, §2, §3

Data set [4] addresses T3, PDGFR. Briefly: Receptor tyrosine kinase inhibition, PDGFR. The class given is cell-based. Also on record: U1242 (PDGF-β receptor); host or cells: U1242 glioma cells (ELISA). The following applies: read-out: PDGFR IC50. As for the experimental part:
as §1, with “The medium was replaced with 2 mL MCDB 105 (UCSF Cell Culture Facility) supplemented with 1% FBS.” left out, “Proteins were resolved by SDS-PAGE (Bio-Rad Miniprotean II) and transferred to nitrocellulose membrane (Schleicher & Schuell) at 120 volts for 1 hr at room temperature in buffer containing 25 mM Tris pH 8.3, 20% methanol, 0.2 M glycine, 0.1% SDS.” left out, “For C6 cells, PDGF-β receptor content in the lysates was confirmed in duplicate sample lanes by western blotting using an antibody specific for PDGF-β receptor (UBI).” left out
as §4, §3

Where [5] appears, read: 40 mg/kg (J10 at d18, G24 at d15).

Usually mortality stands for the share of the test organisms that died.

“And” between values parts separate entries of the source, which are not always exact repeats. Equal values may be shown once. Read-outs that look alike come from different tables or passages of the source.

T3 sequence (P09619 33-1106): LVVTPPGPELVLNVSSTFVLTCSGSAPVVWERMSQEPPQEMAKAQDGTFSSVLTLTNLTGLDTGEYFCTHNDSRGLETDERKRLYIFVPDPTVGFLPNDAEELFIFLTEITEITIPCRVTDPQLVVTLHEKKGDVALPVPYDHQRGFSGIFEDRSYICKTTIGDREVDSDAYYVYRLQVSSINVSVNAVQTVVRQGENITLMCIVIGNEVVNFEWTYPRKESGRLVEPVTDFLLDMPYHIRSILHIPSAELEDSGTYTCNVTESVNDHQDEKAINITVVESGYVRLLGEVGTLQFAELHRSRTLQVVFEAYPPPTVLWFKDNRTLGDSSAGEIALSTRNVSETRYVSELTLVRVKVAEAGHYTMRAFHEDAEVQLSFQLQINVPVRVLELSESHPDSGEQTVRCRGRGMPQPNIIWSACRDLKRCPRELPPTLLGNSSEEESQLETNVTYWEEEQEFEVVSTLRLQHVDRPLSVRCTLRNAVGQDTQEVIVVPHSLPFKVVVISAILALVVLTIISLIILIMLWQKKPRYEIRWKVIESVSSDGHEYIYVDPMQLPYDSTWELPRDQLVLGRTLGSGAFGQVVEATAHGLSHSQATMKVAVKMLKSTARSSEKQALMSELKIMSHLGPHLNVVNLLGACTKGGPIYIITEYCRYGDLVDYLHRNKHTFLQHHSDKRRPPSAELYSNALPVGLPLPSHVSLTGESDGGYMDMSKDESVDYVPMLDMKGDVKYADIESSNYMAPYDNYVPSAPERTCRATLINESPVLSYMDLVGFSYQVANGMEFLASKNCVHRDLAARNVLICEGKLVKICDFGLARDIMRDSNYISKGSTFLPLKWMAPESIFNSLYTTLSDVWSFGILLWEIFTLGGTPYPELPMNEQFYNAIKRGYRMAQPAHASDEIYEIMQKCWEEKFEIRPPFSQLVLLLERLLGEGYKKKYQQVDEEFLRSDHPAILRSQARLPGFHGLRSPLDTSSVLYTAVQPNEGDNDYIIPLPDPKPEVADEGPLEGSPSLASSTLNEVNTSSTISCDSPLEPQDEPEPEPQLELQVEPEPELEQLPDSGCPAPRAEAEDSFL
T2 sequence (P09619 33-1106): as above
T1 sequence (P00533 25-1210): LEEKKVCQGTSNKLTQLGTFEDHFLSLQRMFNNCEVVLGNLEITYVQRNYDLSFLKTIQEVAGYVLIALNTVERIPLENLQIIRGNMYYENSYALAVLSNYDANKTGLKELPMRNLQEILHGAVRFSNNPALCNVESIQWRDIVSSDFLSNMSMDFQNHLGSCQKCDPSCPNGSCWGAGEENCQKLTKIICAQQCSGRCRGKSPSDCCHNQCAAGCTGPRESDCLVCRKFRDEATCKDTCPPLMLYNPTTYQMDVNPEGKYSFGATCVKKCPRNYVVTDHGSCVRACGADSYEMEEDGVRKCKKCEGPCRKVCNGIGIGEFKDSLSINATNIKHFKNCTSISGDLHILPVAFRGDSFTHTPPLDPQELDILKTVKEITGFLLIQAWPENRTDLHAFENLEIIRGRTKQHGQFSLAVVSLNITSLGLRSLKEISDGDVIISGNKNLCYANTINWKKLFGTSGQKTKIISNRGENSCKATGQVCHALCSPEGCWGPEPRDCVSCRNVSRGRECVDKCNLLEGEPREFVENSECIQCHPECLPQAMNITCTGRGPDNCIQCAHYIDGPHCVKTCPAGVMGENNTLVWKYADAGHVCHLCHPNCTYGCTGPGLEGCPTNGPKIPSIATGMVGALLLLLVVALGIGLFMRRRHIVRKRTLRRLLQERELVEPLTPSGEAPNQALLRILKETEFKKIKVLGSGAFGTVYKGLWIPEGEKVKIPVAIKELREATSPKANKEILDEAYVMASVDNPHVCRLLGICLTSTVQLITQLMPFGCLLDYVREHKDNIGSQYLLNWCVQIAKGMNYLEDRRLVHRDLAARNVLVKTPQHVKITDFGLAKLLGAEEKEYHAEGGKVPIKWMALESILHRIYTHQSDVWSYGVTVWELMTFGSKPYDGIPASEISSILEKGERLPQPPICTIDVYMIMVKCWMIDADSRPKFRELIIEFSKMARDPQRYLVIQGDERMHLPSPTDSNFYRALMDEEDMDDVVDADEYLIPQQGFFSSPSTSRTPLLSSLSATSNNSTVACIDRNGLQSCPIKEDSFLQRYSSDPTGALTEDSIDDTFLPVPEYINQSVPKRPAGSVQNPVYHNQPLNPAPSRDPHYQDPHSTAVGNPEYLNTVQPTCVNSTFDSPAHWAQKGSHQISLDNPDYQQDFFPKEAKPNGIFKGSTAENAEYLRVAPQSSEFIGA

In the case of `N#CC(=Cc1cc(O)c(O)c(Br)c1)S(=O)(=O)C(C#N)=Cc1cc(O)c(O)c(Br)c1` [Compound J10], the IC50 is over 100 µM at EGFR; 1000 nM in the data set with PDGFR [1]; 1000 nM at PDGF-R (U1242) (W = done in Western assay, read-out: U1242 KINASE IC50 (W)); over 50000 nM on PDGF-R (U1242) (read-out: U1242 KINASE IC50); over 100 µM in the data set with HER2; 12 µM in the data set on C6 cells. For the same molecule, the mortality in data set [2] (setting [5]) worked out at 100%. Also, the inhibition in vivo at 40 mg/kg with C6 glioma cells (Rattus norvegicus, C6 glioma, sc, at 40 mg/kg, read-out: C6 in vivo EFFICACY) came out at 73%. Moreover, the LD10 in the data set “LD10” came to 171 mg/kg.

Regarding `N#CC(C(=O)Nc1ccc(C(F)(F)F)cc1)=C(O)c1cccc(Oc2ccccc2)c1` [Compound B16, 2-Propenamide, 2-cyano-3-hydroxy-3-((3-phenoxy)phenyl)-N-[(4-trifluoromethyl)phenyl]], the IC50 on PDGFR [3] was 35 µM. For the same molecule, the CC50 with U1242 cells was 50 µM.

For `c1ccc(-c2cnc3ncccc3n2)cc1` [Compound G16], the IC50 at PDGFR [3] is 35 µM. Besides, the CC50 with U1242 cells is over 100 µM.

For `Cc1cc2nc(-c3ccccc3)c(-c3ccc(O)c(O)c3)nc2cc1C` [Compound G24], the IC50 at FLK-1 was 9.3 µM; at EGFR, over 100 µM; on PDGF-R (U1242) (read-out: U1242 KINASE IC50), 600 nM and 5000 nM; in the data set on HER2, over 50 µM; at PDGFR [4] it was 5 µM. The mortality turned out to be 0% in [2] (20 mg/kg) and 12.5% in [2] (setting [5]). This molecule came in with a mortality at 240 h in data set [2] (60 mg/kg (G24 at d10)) of 100%. Also, the “C6 in vivo EFFICACY” value with C6 glioma cells (at 20 mg/kg), in the data set with C6 glioma cells (at 40 mg/kg) and in the data set with C6 glioma cells (at 60 mg/kg) was “no effect” throughout. Besides, the LD10 in the data set “LD10” was over 200 mg/kg.
